Data from paper PMC11418636, “Evaluating the potential of non‐immunosuppressive cyclosporin analogs for targeting Toxoplasma gondii cyclophilin: Insights from structural studies” (Protein Science : A Publication of the Protein Society, 2024).
Read-outs that look alike come from different tables or passages of the source.

Columns and labels:
TgCyp23 [1] = molecular target: T1, TgCyp23 (Toxoplasma gondii, UniProt B9PS61); test: PPIase inhibition, protease-coupled assay with AAPF peptide; type: biochemical; details: PPIase activity, TgCyp23 7 nM, ligand 0 to 30 nM, 10 min on ice; error SEM of triplicate
T1 sequence (B9PS61 entry or part of it): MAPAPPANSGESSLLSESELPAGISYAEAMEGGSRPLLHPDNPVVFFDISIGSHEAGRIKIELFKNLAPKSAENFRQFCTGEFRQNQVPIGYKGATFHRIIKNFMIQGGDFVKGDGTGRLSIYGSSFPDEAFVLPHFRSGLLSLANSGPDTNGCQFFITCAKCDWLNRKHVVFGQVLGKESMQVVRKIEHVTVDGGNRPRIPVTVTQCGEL
Experimental: PPIase activity was determined using the synthetic peptide N‐succinyl‐Ala‐Ala‐Pro‐Phe‐p‐nitroanilide (AAPF) based on the protease‐coupled assay as described in (Favretto et al., [2023]; Kofron et al., [1991]). In inhibition assays, TgCyp23 (7 nM) was incubated for 10 min on ice in the presence of increasing concentrations of the three analogs, ranging from 0 to 30 nM, before the addition of the AAPF peptide. In all experiments, the slope of the catalyzed reaction was corrected for spontaneous thermal cis–trans isomerization in the presence of chymotrypsin alone.
The residual enzymatic activity was estimated from the initial velocities of each catalyzed reaction and expressed as a percentage (%) of the original enzymatic activity (Astegno et al., [2017]). Residual enzymatic activities were plotted against ligand concentrations, and the obtained curve was analyzed to determine the IC50 value for each tested ligand. The experiments were repeated in triplicate, and the error was estimated as the standard error of the mean (SEM).

TgCyp23 [2] = molecular target: T1, TgCyp23; test: Differential scanning calorimetry (DSC) of TgCyp23 with ligands; type: binding; details: melting temperature of 70 μM TgCyp23 with ligand; TgCyp23 alone 49 ± 1
Experimental: Differential scanning calorimetry (DSC) experiments were conducted using a nano‐DSC (TA instrument) with a cell volume of 300 μL (Favretto et al., [2023]). […] Data were fitted according to a two‐state model using NanoAnalyze software (TA instrument).

TgCyp23 [3] = molecular target: T1, TgCyp23; test: Stopped-flow rapid kinetics of binding to TgCyp23; details: association rate constant, 20°C, pH 7.4, 0.5 μM TgCyp23, ligands 1 to 7 μM
Experimental: Stopped‐flow experiments were performed on an SX‐18 stopped‐flow apparatus (Applied Photophysics, Leatherhead, UK) at 20°C in 50 mM Hepes, 150 mM NaCl, 1 mM DTT (pH 7.4). Fluorescence emission was measured using a 320 nm cutoff filter (λex = 280 nm). The concentration of TgCyp23 after mixing was 0.5 μM, and the concentration of ligands after mixing ranged from 1 to 7 μM. For each trace, data from 4 to 6 injections were averaged and fitted with a single exponential function, excluding data points in the dead‐time of the stopped flow (<2 ms).

CypA = details: Ptak et al., 2008, read-out: Ki, inhibition of CypA PPIase activity, cited from earlier work
TgCyp23 [4] = molecular target: T1, TgCyp23; test: Circular dichroism (CD) thermal denaturation of TgCyp23 with ligands; type: binding; details: melting temperature of TgCyp23 with saturating ligand, 224 nm; TgCyp23 alone 52 ± 1
Experimental: Circular dichroism (CD) assays were conducted on a Jasco J‐1500 spectropolarimeter equipped with a Peltier temperature controller following the protocol described in (Bombardi et al., [2020]; Favretto et al., [2023]; Trande et al., [2019]; ). Briefly, denaturation profiles in the presence of saturating concentrations of ligands were obtained by monitoring the loss of secondary structure of TgCyp23 at 224 nm in the temperature range of 15–100°C, with a scan rate of 1.5°C/min. The protein concentration was 0.2 mg/mL, and the buffer used was 50 mM HEPES at pH 8.0 with 100 mM NaCl.

TgCyp23 [5] = molecular target: T1, TgCyp23; test: Isothermal titration calorimetry (ITC) binding to TgCyp23; details: 20°C, 50 mM HEPES pH 8.0, 100 mM NaCl, error SEM of triplicate
Experimental: Isothermal titration calorimetry (ITC) experiments were performed on a PEAQ‐ITC instrument from MicroCal (Northampton, MA) as previously described (Bombardi et al., [2022]; Conter et al., [2021]; Favretto et al., [2023]). Stock solutions of dhCsA, NIM811, and Alisporivir were prepared in 100% EtOH and successively diluted in a buffer of 50 mM HEPES, pH 8.0, 100 mM NaCl at a final concentration of 8 μM. […] The analog solutions were titrated with 2 μL (total 19 injections) of a 66 μM TgCyp23 solution supplemented with 0.1% EtOH. All the experiments were executed at an operating temperature of 20°C and a time gap of 150 s between each injection. Protein and ligand samples were filtered and degassed thoroughly before the experiments. Reference experiments were performed in the absence of a ligand or a protein, and the heat of dilution was subtracted from each experiment. Each titration set was repeated as a triplicate and the error was estimated as the SEM. The data were analyzed using the software MicroCal Origin, and the apparent dissociation constants Kd, the enthalpy changes (ΔH), and entropy changes (ΔS) were obtained.

Compound | IC50 (TgCyp23 [1]) [nM] | Tm (DSC) (TgCyp23 [2]) [°C] | kon (TgCyp23 [3]) [M⁻¹ s⁻¹] | Ki (CypA; ref Schiene-Fischer et al., 2022) [nM] | Tm (CD) (TgCyp23 [4]) [°C] | Kd (TgCyp23 [5]) [nM] | Ki (CypA; ref Coelmont et al., 2010, de Wilde et al., 2013, Gallay & Lin, 2013) [nM]
C/C=C/C[C@@H](C)[C@@H](O)[C@H]1C(=O)N[C@@H](CC)C(=O)N(C)CC(=O)N(C)[C@@H]([C@@H](C)CC)C(=O)N[C@@H](C(C)C)C(=O)N(C)[C@@H](CC(C)C)C(=O)N[C@@H](C)C(=O)N[C@H](C)C(=O)N(C)[C@@H](CC(C)C)C(=O)N(C)[C@@H](CC(C)C)C(=O)N(C)[C@@H](C(C)C)C(=O)N1C [NIM811, MeIle-4-Cyclosporin] | 0.85 ± 0.03 | 56 ± 1 | 2.77e+06 ± 150000 | 2.1 | 58 ± 1 | 43 ± 10 | –
C/C=C/C[C@@H](C)[C@@H](O)[C@H]1C(=O)N[C@@H](CC)C(=O)N(C)[C@H](C)C(=O)N(CC)[C@@H](C(C)C)C(=O)N[C@@H](C(C)C)C(=O)N(C)[C@@H](CC(C)C)C(=O)N[C@@H](C)C(=O)N[C@H](C)C(=O)N(C)[C@@H](CC(C)C)C(=O)N(C)[C@@H](CC(C)C)C(=O)N(C)[C@@H](C(C)C)C(=O)N1C [Alisporivir, MeAla-3-EtVal-4-Cyclosporin] | 0.77 ± 0.01 | 55 ± 1 | 3.97e+06 ± 210000 | – | 59 ± 1 | 15 ± 3 | 0.34
CCCC[C@@H](C)[C@@H](O)[C@H]1C(=O)N[C@@H](CC)C(=O)N(C)CC(=O)N(C)[C@@H](CC(C)C)C(=O)N[C@@H](C(C)C)C(=O)N(C)[C@@H](CC(C)C)C(=O)N[C@@H](C)C(=O)N[C@H](C)C(=O)N(C)[C@@H](CC(C)C)C(=O)N(C)[C@@H](CC(C)C)C(=O)N(C)[C@@H](C(C)C)C(=O)N1C [dhCsA, Dihydrocyclosporin A] | 1.2 ± 0.2 | 53 ± 1 | 1.85e+06 ± 110000 | – | 57 ± 1 | 200 ± 92 | –
